Laboratory results published in US20090131483A1, “2-PYRIDINE DERIVATIVES AS INHIBITORS OF NEUTROPHILE ELASTASE” (priority 2005, published 2009).

Biological target: T1, Human Neutrophil Elastase (HNE) (Homo sapiens, UniProt P08246)
T1 construct: Human Neutrophil Elastase (HNE) purified from serum; purchased Calbiochem 324681; host or cells: purified from serum (so in the source)
T1 sequence (P08246 30-267): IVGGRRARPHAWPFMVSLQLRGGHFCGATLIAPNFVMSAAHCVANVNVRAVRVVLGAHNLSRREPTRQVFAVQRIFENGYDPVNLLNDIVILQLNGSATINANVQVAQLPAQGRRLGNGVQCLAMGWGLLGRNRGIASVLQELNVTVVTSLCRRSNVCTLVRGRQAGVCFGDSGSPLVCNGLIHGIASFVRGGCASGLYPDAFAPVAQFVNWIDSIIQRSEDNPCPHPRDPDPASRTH
Test: Human Neutrophil Elastase Quenched-FRET Assay
Type: biochemical
Conditions: HNE purified from serum 1.7 nM, substrate MeOSuc-AAPV-AMC 100 μM, pH 7.5, 15 min pre-incubation, 30 min incubation at room temperature; read-out: Inhibition of Human Neutrophil Elastase IC50
Description: Human Neutrophil Elastase Quenched-FRET Assay
The assay uses Human Neutrophil Elastase (HNE) purified from serum (Calbiochem art. 324681; Ref. Baugh, R. J. et al., 1976, Biochemistry. 15, 836-841). H was stored in 50 mM sodium acetate (NaOAc), 200 mM sodium chloride (NaCl), pH 5.5 with added 30% glycerol at −20° C. The protease substrate used was Elastase Substrate V Fluorogenic, MeOSuc-AAPV-AMC (Calbiochem art. 324740; Ref. Castillo, M. J. et al., 1979, Anal. Biochem. 99, 53-64). The substrate was stored in dimethyl sulphoxide (DMSO) at −20° C. The assay additions were as follows: Test compounds and controls were added to black 96-well flat-bottom plates (Greiner 655076), 1 μL in 100% DMSO, followed by 30 μL HNE in assay buffer with 0.01% Triton (trade mark) X-100 detergent. The assay buffer constitution was: 100 mM Tris(hydroxymethyl)aminomethane (TRIS) (pH 7.5) and 500 mM NaCl. The enzyme and the compounds were incubated at room temperature for 15 minutes. Then 30 μl substrate in assay buffer was added. The assay was incubated for 30 minutes at room temperature. The concentrations of HNE enzyme and substrate during the incubation were 1.7 nM and 100 μM, respectively. The assay was then stopped by adding 60 μl stop solution (140 mM acetic acid, 200 mM sodium monochloroacetate, 60 mM sodium acetate, pH 4.3). Fluorescence was measured on a Wallac 1420 Victor 2 instrument at settings: Excitation 380 nm, Emission 460 nm. IC50 values were determined using Xlfit curve fitting using model 205.

Row | SMILES | IC50 [µM]
1 | Cc1c(C2CC2)cc(C(=O)NCc2cc(CO)no2)c(=O)n1-c1cccc(C(F)(F)F)c1 [Example 7, 5-Cyclopropyl-N-{[3-(hydroxymethyl)isoxazol-5-yl]methyl}-6-methyl-2-oxo-1-[3-(trifluoromethyl)phenyl]-1,2-dihydropyridine-3-carboxamide] | 0.048
2 | Cc1c(CS(C)(=O)=O)cc(C(=O)NCc2ccc(S(=O)(=O)C3CC3)cc2)c(=O)n1-c1cccc(C(F)(F)F)c1 [Example 23, N-[4-(Cyclopropylsulfonyl)benzyl]-6-methyl-5-[(methylsulfonyl)methyl]-2-oxo-1-[3-(trifluoromethyl)phenyl]-1,2-dihydropyridine-3-carboxamide] | 0.061

Molecules with a lower IC50, results first:

Row | IC50 [µM] | SMILES
3 | 0.031 | Cc1c(-c2ccnn2C)cc(C(=O)NCc2cc(CO)no2)c(=O)n1-c1cccc(C(F)(F)F)c1 [Example 4, N-{[3-(Hydroxymethyl)isoxazol-5-yl]methyl}-6-methyl-5-(1-methyl-1H-pyrazol-5-yl)-2-oxo-1-[3-(trifluoromethyl)phenyl]1,2-dihydropyridine-3-carboxamide]
4 | 0.045 | CCc1cc(C(=O)NCc2cc(CO)no2)c(=O)n(-c2cccc(C(F)(F)F)c2)c1C [Example 6, 5-Ethyl-N-{[3-(hydroxymethyl)isoxazol-5-yl]methyl}-6-methyl-2-oxo-1-[3-(trifluoromethyl)phenyl]-1,2-dihydropyridine-3-carboxamide]
5 | 0.023 | Cc1c(C#CCO)cc(C(=O)NCc2ccc(S(C)(=O)=O)cc2)c(=O)n1-c1cccc(C(F)(F)F)c1 [Example 20, 5-(3-Hydroxyprop-1-yn-1-yl)-6-methyl-N-[4-(methylsulfonyl)benzyl]-2-oxo-1-[3-(trifluoromethyl)phenyl]-1,2-dihydropyridine-3-carboxamide]
